Where a chain is given by its changes, count along the chain named.
Key:
[1] = Tmax in cynomolgus monkey at 3 mg/kg, po; format: ADME, organism-based, Macaca fascicularis; parameters: dose 3 mg/kg, route oral; conditions: in vivo
Cynomolgus monkey [2] = assay: Ex vivo inhibition of plasma renin activity in cynomolgus monkey at 3 mg/kg, po administered after furosemide treatment measured after 24 hrs; format: functional; conditions: Macaca fascicularis
Cynomolgus monkey [3] = assay: Ex vivo inhibition of plasma renin activity in cynomolgus monkey at 10 mg/kg, po administered after furosemide treatment measured after 24 hrs; format: functional; conditions: Macaca fascicularis
Cynomolgus monkey [4] = assay: Cardiotoxicity in telemetered cynomolgus monkey assessed as change in QTc interval at 1000 mg/kg, po administered as single dose measured up to 24 hrs; format: toxicity, organism-based, Macaca fascicularis; parameters: dose 1000 mg/kg, route oral; conditions: in vivo
Renin [5] = molecular target: T1, Renin (Homo sapiens, UniProt P00797); assay: Inhibition of human recombinant renin compound treated for 10 mins before substrate addition measured after 90 mins by fluorescence method
T1 sequence (P00797 whole entry): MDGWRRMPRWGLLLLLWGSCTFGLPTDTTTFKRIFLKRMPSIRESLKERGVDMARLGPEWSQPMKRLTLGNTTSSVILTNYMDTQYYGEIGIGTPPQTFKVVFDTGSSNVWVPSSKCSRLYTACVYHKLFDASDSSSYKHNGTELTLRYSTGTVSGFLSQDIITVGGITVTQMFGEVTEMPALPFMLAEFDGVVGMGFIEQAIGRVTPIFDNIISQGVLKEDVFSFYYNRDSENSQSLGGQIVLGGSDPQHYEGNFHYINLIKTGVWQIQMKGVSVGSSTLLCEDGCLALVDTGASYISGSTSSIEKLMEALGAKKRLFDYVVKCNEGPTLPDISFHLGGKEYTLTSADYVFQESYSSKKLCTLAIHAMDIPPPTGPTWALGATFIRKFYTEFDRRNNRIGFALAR

[6] = Clearance in cynomolgus monkey at 3 mg/kg, iv; format: ADME, organism-based, Macaca fascicularis; parameters: dose 3 mg/kg, route intravenous; conditions: in vivo
[7] = molecular target: Sodium channel protein type 5 subunit alpha (Homo sapiens, UniProt Q14524); assay: Inhibition of human Nav 1.5 at 100 uM
[8] = Oral bioavailability in cynomolgus monkey at 3 mg/kg; format: ADME, organism-based, Macaca fascicularis; conditions: in vivo
[9] = AUC ( 0 to t) in cynomolgus monkey at 10 mg/kg, po; format: ADME, organism-based, Macaca fascicularis; parameters: dose 10 mg/kg, route oral; conditions: plasma
[10] = Cmax in cynomolgus monkey at 10 mg/kg, po; format: ADME, organism-based, Macaca fascicularis; parameters: dose 10 mg/kg, route oral; conditions: in vivo
[11] = molecular target: Voltage-gated inwardly rectifying potassium channel KCNH2 (Homo sapiens, UniProt Q12809); assay: Inhibition of human ERG at 100 uM
[12] = Inhibition of human pepsin
[13] = Inhibition of Cytochrome P450; format: ADME
Renin [14] = molecular target: T1, Renin; assay: Inhibition of human plasma renin activity after 60 mins by competitive RIA
Cathepsin D = Cathepsin D (Homo sapiens, UniProt P07339); assay: Inhibition of human cathepsin D
[15] = Volume of distribution at steady state in cynomolgus monkey at 3 mg/kg, iv; format: ADME, organism-based, Macaca fascicularis; parameters: dose 3 mg/kg, route intravenous; conditions: in vivo, read-out: Vdss
[16] = Half life in cynomolgus monkey at 3 mg/kg, po; format: ADME, organism-based, Macaca fascicularis; parameters: dose 3 mg/kg, route oral; conditions: in vivo
[17] = Half life in cynomolgus monkey at 10 mg/kg, po; format: ADME, organism-based, Macaca fascicularis; parameters: dose 10 mg/kg, route oral; conditions: in vivo
[18] = Oral bioavailability in cynomolgus monkey at 10 mg/kg; format: ADME, organism-based, Macaca fascicularis; conditions: in vivo
Salmonella typhimurium [19] = assay: Mutagenic activity in Salmonella typhimurium; format: toxicity, organism-based; conditions: salmonella enterica subsp. enterica serovar typhimurium
Cynomolgus monkey [20] = assay: Ex vivo inhibition of plasma renin activity in cynomolgus monkey at 3 to 10mg/kg, po administered after furosemide treatment measured after 24 hrs relative to aliskiren hemifumarate; format: functional, Macaca fascicularis
Salmonella typhimurium [21] = assay: Mutagenic activity in Salmonella typhimurium in presence of S9 mixture; format: toxicity, organism-based; conditions: salmonella enterica subsp. enterica serovar typhimurium
Cynomolgus monkey [22] = assay: Antihypertensive activity in po dosed cynomolgus monkey assessed as reduction in mean arterial pressure administered as single dose 3 days prior to furosemide treatment measured up to 12 hrs; format: functional, organism-based; conditions: Macaca fascicularis; Artery
[23] = Cmax in cynomolgus monkey at 3 mg/kg, po; format: ADME, organism-based, Macaca fascicularis; parameters: dose 3 mg/kg, route oral; conditions: in vivo
Cynomolgus monkey [24] = assay: Ex vivo inhibition of plasma renin activity in po dosed cynomolgus monkey administered after furosemide treatment measured up to 24 hrs; format: functional, organism-based; conditions: Macaca fascicularis
Cathepsin E = molecular target: T2, Cathepsin E (Homo sapiens, UniProt P14091); assay: Inhibition of human cathepsin E
T2 sequence (P14091 whole entry): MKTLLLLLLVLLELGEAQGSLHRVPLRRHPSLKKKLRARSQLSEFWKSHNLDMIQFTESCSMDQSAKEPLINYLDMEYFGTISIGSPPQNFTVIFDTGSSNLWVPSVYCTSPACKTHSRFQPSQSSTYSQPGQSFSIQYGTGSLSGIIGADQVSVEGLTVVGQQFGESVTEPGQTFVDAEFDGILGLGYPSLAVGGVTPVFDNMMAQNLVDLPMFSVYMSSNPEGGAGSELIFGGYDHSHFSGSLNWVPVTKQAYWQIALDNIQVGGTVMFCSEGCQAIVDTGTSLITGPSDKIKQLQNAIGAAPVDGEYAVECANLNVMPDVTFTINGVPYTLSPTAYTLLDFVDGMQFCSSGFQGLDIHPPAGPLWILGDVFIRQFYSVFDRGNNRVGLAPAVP

[25] = Half life in cynomolgus monkey at 3 mg/kg, iv; format: ADME, organism-based, Macaca fascicularis; parameters: dose 3 mg/kg, route intravenous; conditions: in vivo
Cynomolgus monkey [26] = assay: Cardiotoxicity in telemetered cynomolgus monkey assessed as change in QRS width at 1000 mg/kg, po administered as single dose measured up to 24 hrs; format: toxicity, organism-based, Macaca fascicularis; parameters: dose 1000 mg/kg, route oral; conditions: in vivo
[27] = AUC ( 0 to t) in cynomolgus monkey at 3 mg/kg, po; format: ADME, organism-based, Macaca fascicularis; parameters: dose 3 mg/kg, route oral; conditions: plasma
[28] = AUC ( 0 to t) in cynomolgus monkey at 3 mg/kg, iv; format: ADME, organism-based, Macaca fascicularis; parameters: dose 3 mg/kg, route intravenous; conditions: plasma
Renin [29] = molecular target: T3, Renin (Macaca fascicularis, UniProt Q6DLS0); assay: Inhibition of cynomolgus monkey plasma renin activity after 60 mins by competitive RIA
T3 sequence (Q6DLS0 whole entry): T1 sequence (P00797 whole entry) with T68A, I214L, S235A

[30] = Tmax in cynomolgus monkey at 10 mg/kg, po; format: ADME, organism-based, Macaca fascicularis; parameters: dose 10 mg/kg, route oral; conditions: in vivo
[31] = Inhibition of HIV protease; parameters: species or system Human immunodeficiency virus

Chain of Sodium channel protein type 5 subunit alpha (Q14524 whole entry): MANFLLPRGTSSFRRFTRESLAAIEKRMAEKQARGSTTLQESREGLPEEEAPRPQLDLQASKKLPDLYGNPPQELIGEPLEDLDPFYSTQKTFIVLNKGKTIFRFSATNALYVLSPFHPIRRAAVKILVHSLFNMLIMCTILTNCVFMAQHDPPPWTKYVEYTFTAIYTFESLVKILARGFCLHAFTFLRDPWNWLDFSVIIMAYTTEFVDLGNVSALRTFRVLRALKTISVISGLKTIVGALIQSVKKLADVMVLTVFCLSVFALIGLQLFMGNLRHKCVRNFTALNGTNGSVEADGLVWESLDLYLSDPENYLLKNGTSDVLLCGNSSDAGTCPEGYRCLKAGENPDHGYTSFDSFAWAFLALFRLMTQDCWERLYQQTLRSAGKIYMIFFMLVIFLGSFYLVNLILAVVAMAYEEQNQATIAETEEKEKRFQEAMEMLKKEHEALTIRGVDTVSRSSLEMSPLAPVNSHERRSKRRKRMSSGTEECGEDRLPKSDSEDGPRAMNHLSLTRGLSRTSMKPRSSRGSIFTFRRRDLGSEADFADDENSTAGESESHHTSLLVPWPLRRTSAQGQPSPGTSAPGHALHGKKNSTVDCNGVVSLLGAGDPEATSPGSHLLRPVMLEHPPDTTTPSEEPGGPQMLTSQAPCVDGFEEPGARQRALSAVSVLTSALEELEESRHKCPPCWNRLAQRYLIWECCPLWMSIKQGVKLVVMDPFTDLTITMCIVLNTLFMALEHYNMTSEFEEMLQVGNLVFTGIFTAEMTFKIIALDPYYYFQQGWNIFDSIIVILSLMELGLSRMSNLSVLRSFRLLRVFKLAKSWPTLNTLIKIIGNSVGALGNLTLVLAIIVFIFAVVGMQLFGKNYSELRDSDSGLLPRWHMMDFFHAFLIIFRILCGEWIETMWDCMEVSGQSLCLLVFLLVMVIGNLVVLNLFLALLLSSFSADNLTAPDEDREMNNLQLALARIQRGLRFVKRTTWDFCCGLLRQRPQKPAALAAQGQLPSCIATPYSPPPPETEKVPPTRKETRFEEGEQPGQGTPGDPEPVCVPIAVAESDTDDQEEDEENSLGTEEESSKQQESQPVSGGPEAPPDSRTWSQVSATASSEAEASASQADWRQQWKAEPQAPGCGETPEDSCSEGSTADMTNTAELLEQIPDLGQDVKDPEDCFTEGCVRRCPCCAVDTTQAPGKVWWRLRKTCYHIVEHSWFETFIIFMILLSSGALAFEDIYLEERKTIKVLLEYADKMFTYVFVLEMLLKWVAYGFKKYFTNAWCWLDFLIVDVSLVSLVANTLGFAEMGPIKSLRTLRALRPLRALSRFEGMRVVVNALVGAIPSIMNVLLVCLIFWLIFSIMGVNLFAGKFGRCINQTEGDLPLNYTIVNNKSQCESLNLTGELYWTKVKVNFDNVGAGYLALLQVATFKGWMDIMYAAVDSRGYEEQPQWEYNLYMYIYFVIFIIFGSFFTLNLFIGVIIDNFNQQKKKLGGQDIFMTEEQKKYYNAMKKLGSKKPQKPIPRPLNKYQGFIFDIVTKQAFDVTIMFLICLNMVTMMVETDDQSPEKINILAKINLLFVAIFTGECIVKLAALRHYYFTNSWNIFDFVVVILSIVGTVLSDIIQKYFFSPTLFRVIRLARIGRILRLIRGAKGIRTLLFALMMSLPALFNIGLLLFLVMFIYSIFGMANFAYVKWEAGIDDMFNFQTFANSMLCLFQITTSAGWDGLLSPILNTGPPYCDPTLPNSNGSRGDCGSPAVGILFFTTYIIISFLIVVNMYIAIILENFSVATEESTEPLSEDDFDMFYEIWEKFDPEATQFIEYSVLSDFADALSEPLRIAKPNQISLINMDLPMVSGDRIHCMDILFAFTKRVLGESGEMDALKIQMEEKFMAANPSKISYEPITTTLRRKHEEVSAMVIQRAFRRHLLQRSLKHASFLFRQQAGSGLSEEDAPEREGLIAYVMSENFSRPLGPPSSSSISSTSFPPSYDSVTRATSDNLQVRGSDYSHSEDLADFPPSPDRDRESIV
Chain of Cathepsin D (P07339 65-162 limits assumed): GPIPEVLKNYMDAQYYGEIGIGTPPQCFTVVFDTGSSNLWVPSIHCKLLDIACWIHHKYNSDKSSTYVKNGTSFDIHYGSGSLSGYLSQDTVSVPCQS
Chain of Cathepsin D (P07339 169-412 limits assumed): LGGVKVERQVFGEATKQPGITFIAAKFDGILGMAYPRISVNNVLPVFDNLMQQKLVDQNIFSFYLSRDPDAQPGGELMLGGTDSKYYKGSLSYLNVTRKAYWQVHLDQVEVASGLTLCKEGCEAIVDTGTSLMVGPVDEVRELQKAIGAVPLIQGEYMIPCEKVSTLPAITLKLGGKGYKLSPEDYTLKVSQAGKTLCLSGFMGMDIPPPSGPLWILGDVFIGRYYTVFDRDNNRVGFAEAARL
Chain of Voltage-gated inwardly rectifying potassium channel KCNH2 (Q12809 whole entry): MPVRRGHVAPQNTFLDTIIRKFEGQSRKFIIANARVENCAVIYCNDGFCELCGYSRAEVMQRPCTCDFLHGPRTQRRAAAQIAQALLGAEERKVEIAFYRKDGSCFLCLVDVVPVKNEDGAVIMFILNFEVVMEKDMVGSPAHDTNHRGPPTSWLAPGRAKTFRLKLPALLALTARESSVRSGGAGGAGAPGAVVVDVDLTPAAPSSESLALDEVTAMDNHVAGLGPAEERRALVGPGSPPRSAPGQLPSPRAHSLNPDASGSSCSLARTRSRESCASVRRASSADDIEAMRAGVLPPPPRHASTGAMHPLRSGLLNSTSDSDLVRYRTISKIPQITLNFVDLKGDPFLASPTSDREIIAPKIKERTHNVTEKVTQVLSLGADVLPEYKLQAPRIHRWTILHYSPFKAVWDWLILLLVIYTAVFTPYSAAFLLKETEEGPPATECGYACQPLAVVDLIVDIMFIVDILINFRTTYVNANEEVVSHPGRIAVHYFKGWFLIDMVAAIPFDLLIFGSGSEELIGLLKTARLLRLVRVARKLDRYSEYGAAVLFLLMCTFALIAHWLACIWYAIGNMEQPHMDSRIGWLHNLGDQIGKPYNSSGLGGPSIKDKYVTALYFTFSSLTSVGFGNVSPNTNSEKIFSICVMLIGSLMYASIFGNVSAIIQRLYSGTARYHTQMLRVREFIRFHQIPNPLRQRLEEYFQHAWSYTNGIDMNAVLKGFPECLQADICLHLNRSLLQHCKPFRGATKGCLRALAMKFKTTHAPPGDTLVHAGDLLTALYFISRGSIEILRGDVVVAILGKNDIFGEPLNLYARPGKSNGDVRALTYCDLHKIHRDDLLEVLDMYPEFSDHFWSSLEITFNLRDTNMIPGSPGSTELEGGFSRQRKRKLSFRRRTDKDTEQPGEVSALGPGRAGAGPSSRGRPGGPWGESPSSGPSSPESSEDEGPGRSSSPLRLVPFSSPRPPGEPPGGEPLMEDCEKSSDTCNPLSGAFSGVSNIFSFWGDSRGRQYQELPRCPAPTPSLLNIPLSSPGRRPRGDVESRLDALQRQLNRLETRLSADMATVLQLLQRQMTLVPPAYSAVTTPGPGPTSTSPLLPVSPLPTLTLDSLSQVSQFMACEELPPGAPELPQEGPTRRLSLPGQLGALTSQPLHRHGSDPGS

Tmax [1]: 3 h
IC50 (Renin [5]): 0.9 nM
clearance [6]: 3.59 mL/min/kg
bioavailability [8]: 4.1%
AUC(0-t) [9]: 2880 ng·h/mL
Cmax [10]: 399 ng/mL
IC50 [12]: > 10000 nM
IC50 [13]: > 10000 nM
IC50 (Renin [14]): 1.9 nM
IC50 (Cathepsin D): > 10000 nM
Vd [15]: 1.12 L/kg
half-life [16]: 5.1 h
half-life [17]: 5.4 h
bioavailability [18]: 5.3%
Cmax [23]: 102 ng/mL
IC50 (Cathepsin E): > 10000 nM
half-life [25]: 7.8 h
AUC(0-t) [27]: 685 ng·h/mL
AUC(0-t) [28]: 15500 ng·h/mL
IC50 (Renin [29]): 6.3 nM
Tmax [30]: 2.3 h
IC50 [31]: > 10000 nM
SMILES: CC[C@H](C[C@H](O)[C@@H](N)CN1CC(=O)N(c2ccccc2Cl)CC1(C)C)C(=O)NC1C2CC3CC1CC(O)(C3)C2.O.O=C(O)/C=C/C(=O)O (stereo partly drawn)
inhibition in vivo at 3 mg/kg (Cynomolgus monkey [2]): 65%
inhibition in vivo at 10 mg/kg (Cynomolgus monkey [3]): 65%
Activity (Cynomolgus monkey [4]): Non-toxic
inhibition (INH) [7]: Not Active
inhibition (INH) [11]: Not Active
Activity (Salmonella typhimurium [19]): Non-toxic
Ratio (Cynomolgus monkey [20]): 3
Activity (Salmonella typhimurium [21]): Non-toxic
Activity (Cynomolgus monkey [22]): Dose-dependent effect
inhibition (Cynomolgus monkey [24]): Dose-dependent effect
Activity (Cynomolgus monkey [26]): Non-toxic

Reference: ChEMBL document CHEMBL2150897, “Discovery of DS-8108b, a Novel Orally Bioavailable Renin Inhibitor” (ACS Med Chem Lett, 2012)
